{"source": "patent US12083094B2", "about": "“Cannabinoid composition and methods of treatment using the same” (CANNPAL ANIMAL THERAPEUTICS LIMITED, priority 2018, dated 2024)", "assay": "Blood sampling for THC and CBD plasma concentration after single oral dosing", "details": "for concentration at 12 h: 12 hours post administration; for AUC: AUC for CBD concentration, canine", "description": "Two compositions, IVP1 and IVP2, were administered in varying amounts in the study.\nDosage volumes were calculated prior to Day 0, to provide the target dosage in mg/kg bodyweight based on actual dog bodyweights and IVP active ingredient composition based on the Certificates of Analysis.\nBlood samples of approximately 5 mL were collected at each drug concentration sampling time-point from each animal using 22-gauge needles and 5 mL syringes.\nThe data points from Table 4 and Table 5 were also plotted and these graphs are set out in FIGS. 1-16.", "note": "Values joined by “and” are separate entries in the source; they are usually repeats but may differ in a detail not shown here. Equal values may be shown once."}
{"smiles": "C=C(C)[C@@H]1CCC(C)=C[C@H]1c1c(O)cc(CCCCC)cc1O", "note": "[CBD, Cannabidiol]", "values": [{"measurement": "concentration at 32 h", "setting": "dog, plasma, oral, CBD concentration in blood plasma, mean of dogs 5-8, 0.24 mg/kg CBD + 0.12 mg/kg THC oral once, 32 h", "value": 0.34, "unit": "ng/mL"}, {"measurement": "concentration at 48 h", "setting": "dog, plasma, oral, CBD concentration in blood plasma, mean of dogs 5-8, 0.24 mg/kg CBD + 0.12 mg/kg THC oral once, 48 h", "value": 0.13, "unit": "ng/mL"}, {"measurement": "concentration at 72 h", "setting": "dog, plasma, oral, CBD concentration in blood plasma, mean of dogs 5-8, 0.24 mg/kg CBD + 0.12 mg/kg THC oral once, 72 h", "value": 0, "unit": "ng/mL"}, {"measurement": "concentration at 16 h", "setting": "dog, plasma, oral, CBD concentration recorded in subjects, 16 hours post administration", "value": 0.26, "unit": "ng/mL"}, {"measurement": "concentration at 32 h", "setting": "dog, plasma, oral, CBD concentration recorded in subjects, 32 hours post administration", "value": 0.28, "unit": "ng/mL"}, {"measurement": "concentration at 12 h", "setting": "dog, plasma, oral, highest level of CBD recorded", "value": 0.88, "unit": "ng/mL"}, {"measurement": "concentration at 12 h", "setting": "dog, plasma, oral, lowest level of CBD recorded in a subject", "value": 0.23, "unit": "ng/mL"}, {"measurement": "half-life", "setting": "dog, plasma, po", "value": 12.6, "unit": "h"}, {"measurement": "AUC", "setting": "dog, plasma, po, 0.12 mg/kg, 0.12 mg/kg CBD in combination with 0.24 mg/kg THC", "value": "30 to 50", "unit": "ng·h/mL"}, {"measurement": "Cmax", "setting": "dog, plasma, po, 0.24 mg/kg", "value": "5 to 69", "unit": "ng/mL"}, {"measurement": "AUC", "setting": "dog, plasma, po, 0.24 mg/kg, 0.24 mg/kg CBD in combination with 0.12 mg/kg THC", "value": "95 to 110", "unit": "ng·h/mL"}, {"measurement": "CBD concentration in blood plasma", "setting": "individual dogs 1-4, 0.12 mg/kg CBD + 0.24 mg/kg THC oral once, 0 h", "value": 0, "unit": "ng/mL"}, {"measurement": "CBD concentration in blood plasma", "setting": "individual dogs 1-4, 0.12 mg/kg CBD + 0.24 mg/kg THC oral once, 0.67 h", "value": "15.60 ng/mL and 18.10 ng/mL and 5.26 ng/mL and 10.10 ng/mL"}, {"measurement": "CBD concentration in blood plasma", "setting": "individual dogs 1-4, 0.12 mg/kg CBD + 0.24 mg/kg THC oral once, 1 h", "value": "12.00 ng/mL and 13.60 ng/mL and 5.99 ng/mL and 13.10 ng/mL"}, {"measurement": "CBD concentration in blood plasma", "setting": "individual dogs 1-4, 0.12 mg/kg CBD + 0.24 mg/kg THC oral once, 1.5 h", "value": "7.99 ng/mL and 9.07 ng/mL and 9.84 ng/mL"}, {"measurement": "CBD concentration in blood plasma", "setting": "individual dogs 1-4, 0.12 mg/kg CBD + 0.24 mg/kg THC oral once, 2 h", "value": "4.48 ng/mL and 8.08 ng/mL and 8.72 ng/mL"}, {"measurement": "CBD concentration in blood plasma", "setting": "individual dogs 1-4, 0.12 mg/kg CBD + 0.24 mg/kg THC oral once, 3 h", "value": "2.83 ng/mL and 2.33 ng/mL and 5.83 ng/mL and 6.25 ng/mL"}, {"measurement": "CBD concentration in blood plasma", "setting": "individual dogs 1-4, 0.12 mg/kg CBD + 0.24 mg/kg THC oral once, 4 h", "value": "1.95 ng/mL and 1.24 ng/mL and 4.08 ng/mL and 4.31 ng/mL"}, {"measurement": "CBD concentration in blood plasma", "setting": "individual dogs 1-4, 0.12 mg/kg CBD + 0.24 mg/kg THC oral once, 6 h", "value": "1.56 ng/mL and 0.76 ng/mL and 2.99 ng/mL and 2.75 ng/mL"}, {"measurement": "CBD concentration in blood plasma", "setting": "individual dogs 1-4, 0.12 mg/kg CBD + 0.24 mg/kg THC oral once, 8 h", "value": "1.12 ng/mL and 0.53 ng/mL and 1.23 ng/mL and 2.32 ng/mL"}, {"measurement": "CBD concentration in blood plasma", "setting": "individual dogs 1-4, 0.12 mg/kg CBD + 0.24 mg/kg THC oral once, 12 h", "value": "0.48 ng/mL and 0.23 ng/mL and 0.37 ng/mL and 0.55 ng/mL"}, {"measurement": "CBD concentration in blood plasma", "setting": "individual dogs 1-4, 0.12 mg/kg CBD + 0.24 mg/kg THC oral once, 16 h", "value": "0.00 ng/mL (2×) and 0.26 ng/mL and 0.36 ng/mL"}, {"measurement": "CBD concentration in blood plasma", "setting": "individual dogs 1-4, 0.12 mg/kg CBD + 0.24 mg/kg THC oral once, 24 h", "value": "0.00 ng/mL and 0.23 ng/mL"}, {"measurement": "CBD concentration in blood plasma", "setting": "individual dogs 5-8, 0.24 mg/kg CBD + 0.12 mg/kg THC oral once, 0 h", "value": 0, "unit": "ng/mL"}, {"measurement": "CBD concentration in blood plasma", "setting": "individual dogs 5-8, 0.24 mg/kg CBD + 0.12 mg/kg THC oral once, 0.67 h", "value": "28.70 ng/mL and 28.10 ng/mL and 10.20 ng/mL and 53.40 ng/mL"}, {"measurement": "CBD concentration in blood plasma", "setting": "individual dogs 5-8, 0.24 mg/kg CBD + 0.12 mg/kg THC oral once, 1 h", "value": "35.20 ng/mL and 20.10 ng/mL and 18.90 ng/mL and 69.10 ng/mL"}, {"measurement": "CBD concentration in blood plasma", "setting": "individual dogs 5-8, 0.24 mg/kg CBD + 0.12 mg/kg THC oral once, 1.5 h", "value": "33.20 ng/mL and 27.00 ng/mL and 12.70 ng/mL and 34.60 ng/mL"}, {"measurement": "CBD concentration in blood plasma", "setting": "individual dogs 5-8, 0.24 mg/kg CBD + 0.12 mg/kg THC oral once, 2 h", "value": "14.90 ng/mL and 12.60 ng/mL and 20.30 ng/mL"}, {"measurement": "CBD concentration in blood plasma", "setting": "individual dogs 5-8, 0.24 mg/kg CBD + 0.12 mg/kg THC oral once, 3 h", "value": "6.33 ng/mL and 6.79 ng/mL and 7.66 ng/mL"}, {"measurement": "CBD concentration in blood plasma", "setting": "individual dogs 5-8, 0.24 mg/kg CBD + 0.12 mg/kg THC oral once, 4 h", "value": "4.07 ng/mL and 4.40 ng/mL and 4.36 ng/mL"}, {"measurement": "CBD concentration in blood plasma", "setting": "individual dogs 5-8, 0.24 mg/kg CBD + 0.12 mg/kg THC oral once, 6 h", "value": "3.40 ng/mL and 2.22 ng/mL and 5.74 ng/mL and 1.87 ng/mL"}, {"measurement": "CBD concentration in blood plasma", "setting": "individual dogs 5-8, 0.24 mg/kg CBD + 0.12 mg/kg THC oral once, 8 h", "value": "4.68 ng/mL and 1.23 ng/mL and 4.36 ng/mL and 0.91 ng/mL"}, {"measurement": "CBD concentration in blood plasma", "setting": "individual dogs 5-8, 0.24 mg/kg CBD + 0.12 mg/kg THC oral once, 12 h", "value": "0.63 ng/mL and 0.85 ng/mL and 0.72 ng/mL"}, {"measurement": "CBD concentration in blood plasma", "setting": "individual dogs 5-8, 0.24 mg/kg CBD + 0.12 mg/kg THC oral once, 16 h", "value": "0.49 ng/mL and 0.65 ng/mL and 0.47 ng/mL"}, {"measurement": "CBD concentration in blood plasma", "setting": "individual dogs 5-8, 0.24 mg/kg CBD + 0.12 mg/kg THC oral once, 24 h", "value": "0.28 ng/mL (2×) and 0.46 ng/mL"}, {"measurement": "CBD concentration in blood plasma", "setting": "individual dogs 5-8, 0.24 mg/kg CBD + 0.12 mg/kg THC oral once, 32 h", "value": "0.39 ng/mL (2×) and 0.32 ng/mL"}, {"measurement": "CBD concentration in blood plasma", "setting": "individual dogs 5-8, 0.24 mg/kg CBD + 0.12 mg/kg THC oral once, 48 h", "value": "0.00 ng/mL (2×) and 0.22 ng/mL and 0.31 ng/mL"}, {"measurement": "CBD concentration in blood plasma", "setting": "individual dogs 5-8, 0.24 mg/kg CBD + 0.12 mg/kg THC oral once, 72 h", "value": 0.00, "unit": "ng/mL"}, {"measurement": "CBD in the subject's blood", "setting": "up to 72 h after administration", "value": "detectable"}]}
